In publication PMC5081312, “Antifouling phenyl ethers and other compounds from the invertebrates and their symbiotic fungi collected from the South China Sea” (AMB Express, 2016):
Where two headings read alike, the source gives them in different places. Starred links: 1 amine or outer side, 2 acyl side, 3 side chain; linkers in the order of their positions; H or OH if unused. Non-standard residues stand in square brackets, D forms with d. Residues, ends and D or L forms follow the SMILES beside them. X1 = O=C(c1cc(O)ccc1N[*:1])[*:2]

Assays:
[1] = system: cyprids of barnacle B. amphitrite; assay: Anti-larval settlement bioassay (antifouling activity and larval toxicity); type: in vivo; conditions: for LC50/EC50 ratio (therapeutic ratio): B. amphitrite cyprids, ratio >15 considered non-toxic; for LC50 / EC50: cyprids of B. amphitrite, 48 h at 28 °C; for LC50: concentration where 50% of larvae were dead; for EC50: concentration where 50% of larvae were inhibited to settle vs negative control, read-out: EC50 (larval settlement inhibition); for inhibition of larval settlement in preliminary screening: B. amphitrite, at 25.0 μg ml^−1
Protocol: (§1) The newly released nauplii were screened with the aperture of 90 μm. The newly released nauplii were raised in filtered seawater (FSW) at 28 °C with mild aeration and fed with Chaetoceros gracilis Schutt at 1 × 10^6 cells ml^−1. The nauplius larvae transformed into cyprids (ready to attach and metamorphose) after 3.5 days. Newly transformed cyprids were kept in filtered seawater at 4 °C overnight before being used in the anti-larval settlement bioassay.
(§2) The antifouling activity was evaluated as larval settlement inhibition against the cyprids of barnacle B. amphitrite using 24-well polystyrene plates (Nunc, Naperville, CA, USA). Each compound was dissolved in a stock solution of DMSO with the concentration of 50 mg ml^−1, and then diluted 1000 times with FSW to 50 μg ml^−1. The compound was further transferred into FSW to make up the following test solution with the concentrations ranging from 25 to 0.50 μg ml^−1. One millilitre of the test solution and 16–20 larvae were allocated to each well of the 24-well plate. Each concentration had three replicate wells. The plates were cultivated in darkness for 48 h at 28 °C. The effects of the test compounds against the larvae settlement were determined by examining the plates under a dissecting microscope to check for (1) settled larvae (attached and metamorphosed), (2) swimming larvae, as well as (3) any possible toxic effects of the treatments (dead and paralyzed). The number of the settled larvae was expressed as a percentage of the total number of larvae per well. Each compound was tested by triplicate experiments using three different batches of larvae.
(§3) The EC50 and LC50 values of each compound were calculated according to the records of anti-larval settlement experiments. […] Then a concentration–response curve was plotted and a tread line was set up.

[2] = as above; type: in vivo; conditions: Balanus (Amphibalanus) amphitrite (barnacle cyprid larvae), in vivo, cyprids of B. amphitrite, 48 h at 28 °C, concentration where 50% of larvae were dead; for LC50 at 48 h: other: larvae immersed in test solution
Protocol: as §1, §2, §3

Molecule | LC50/EC50 ratio (therapeutic ratio) [1] | LC50 [1] [µM] | EC50 [1] [µM] | other results
1-Formyl-4-methyl-7-isopropylazulene [compound 17] | >16.1 | > 236 | 14.7 | –
Cc1cc(C=O)c2c(C)cc3c(cc1-2)[C@@H](C)CO3 [compound 18, Ochracenoid A] | – | – | – | LC50 at 48 h [2]: 208 µM; EC50 ([1]; Amphibalanus amphitrite, 48 h): 83.3 µM
COc1cc(O)c(-c2c3c(c(O)c4c(OC)cc(O)cc24)C(=O)C=C(C)C3=O)c2cc3c(c(O)c12)C(=O)C[C@@](C)(O)C3 [compound 37, Asperinine A] | >2.88 | > 87.7 | 30.5 | –
CC1=CC(=O)c2c(C)cc(C(=O)C(C)C)cc21 [compound 20, Ochracenoid B] | – | > 219 | > 110 | –
C=CC(C)(C)c1[nH]c2ccccc2c1/C=C1\NC(=O)C2(C=C3c4cc(O)cc(O)c4C(=O)c4c(O)cc(C)c(c43)O2)NC1=O (stereo not drawn) [compound 42, Variecolortide B] | – | > 84.9 | > 84.9 | –
C=C(CCC(C)C1CCC(C2=CC(O)C3CC(O)CCC3(C)C2=O)C1(C)CCO)C(C)C (stereo not drawn) [compound 27, 3β,6α,11-Trihydroxy-9,11-seco-5α-cholesta-7,24(28)-dien-9-one] | – | > 56.1 | > 56.1 | –
C[C@]12CCC[C@H](O1)c1c(cc3c(c1O)C(=O)c1c(O)cc(O)cc1C3=O)O2 [compound 32, Averufin] | >14.7 | > 136 | 9.27 | –
COc1cc(C)c(C(=O)O[C@H]2[C@@H](OC(C)=O)[C@H](n3ccc(=O)[nH]c3=O)O[C@@H]2COC(C)=O)c(OC)c1 [compound 52, Diacetylkipukasin D] | – | > 98.8 | > 49.4 | –
C/C(=C\[C@H](O)C[C@@H](C)CCCc1ccoc1)CCCc1ccoc1 [compound 22, Furospongin-1] | 25.2 | – | 6.06 | LC50 at 48 h [2]: 153 µM; EC50 ([1]; Amphibalanus amphitrite, 48 h): 6.05 µM; inhibition of larval settlement in preliminary screening [1]: completely inhibited
CC(C)C(C)CCC(C)C1CCC(C2=CC(O)C3CC(O)CCC3(C)C2=O)C1(C)CCO (mixture of isomers) [compound 24, (24R)-and(24S)-3β,6α,11-Trihydroxy-methyl-9,11-seco-5α-cholest-7-en-9-one] | – | > 112 | > 55.8 | –
COC(=O)c1ccccc1NC(=O)[C@H](CC[S+](C)[O-])NC(=O)c1cnc2c(n1)c(=O)n(C)c(=O)n2C (stereo partly drawn) [compound 53, Penilumamide] | – | > 96.9 | > 96.9 | –
CC(C)C=CC(C)C1CCC(C2=CC(O)C3CC(O)CCC3(C)C2=O)C1(C)CCO (stereo not drawn) [compound 25, (22E)-3β,6α,11-Trihydroxy-24-nor-9,11-seco-5α-cholesta-7,22-dien-9-one] | – | 59.8 | 29.9 | inhibition of larval settlement in preliminary screening [1]: completely inhibited
COc1cc(O)cc2c1C(=O)c1c(O)cc(CO)cc1C2=O [compound 35, Questinol] | – | > 167 | > 83.3 | –
CCCCCOc1cc(C)cc(Oc2cc(C)cc(O)c2)c1 [compound 8, 3-O-pentyl-diorcinol] | >5.99 | – | – | LC50 at 48 h [2]: > 167 µM; EC50 ([1]; Amphibalanus amphitrite, 48 h): 27.9 µM
CC(=O)OCCC1(C)C(C2=CC(OC(C)=O)C3CC(OC(C)=O)CCC3(C)C2=O)CCC1C(C)C=CCC(C)C (stereo not drawn) [compound 31, (22E)-3,6,11-Triacetoxy-9,11-seco-5α-cholesta-7,22-dien-9-one] | 8.00 | 96.8 | 12.1 | –
CC(=O)Oc1cc(C)cc(Oc2cc(C)cc(OC(C)=O)c2)c1 [compound 11, 3,3′-O-diacetyl-diorcinol] | – | – | – | LC50 at 48 h [2]: 49.4 µM
CC1=C[C@@H]2/C=C(\C)CC[C@H](O)[C@H](O)[C@@H](O)CC(=O)[C@]23C(=O)N[C@@H](CC(C)C)[C@@H]3[C@@H]1C [compound 47, Aspochalasin E] | >3.70 | – | – | LC50 [2]: > 119 µM; EC50 ([1]; Amphibalanus amphitrite): 32.2 µM
CC1=CC(=O)c2c1cc(C(C)C)c(C=O)c2C [compound 19, 3,8-Dimethyl-5-isopropyl-6-formylindenone] | – | > 219 | > 110 | –
COc1cc(C)c(C(=O)O[C@H]2[C@@H](O)[C@H](n3ccc(=O)[nH]c3=O)O[C@@H]2CO)c(OC)c1 [compound 50, Kipukasin D] | – | > 59.2 | > 59.2 | –

Molecule | LC50/EC50 ratio (therapeutic ratio) [1] | LC50 [1] [µM] | EC50 [1] [µM] | other results
COc1cc(C)c(C(=O)O[C@@H]2[C@H](OC(C)=O)[C@@H](COC(C)=O)O[C@H]2n2ccc(=O)[nH]c2=O)c(OC)c1 [compound 51, Diacetylkipukasin E] | >2.22 | > 98.8 | 44.5 | –
C=CC(C)(C)c1[nH]c2ccc(CC=C(C)C)cc2c1C=C1NC(=O)C2(C=C3c4cc(O)cc(OC)c4C(=O)c4c(O)cc(C)c(c43)O2)NC1=O (stereo not drawn) [compound 41, 7-O-methylvariecolortide A] | – | > 74.5 | > 74.5 | –
C[C@H](NC(=O)c1cnc2c(n1)c(=O)n(C)c(=O)n2C)C(=O)Nc1ccccc1C(N)=O [compound 54, Penilumamide D] | – | > 58.8 | > 58.8 | –
COc1cc(O)cc2c1C(=O)c1c(O)cc(CO)c(O)c1C2=O [compound 36, ω-Hydroxyrubrocristin] | – | > 158 | > 79.1 | –
Variecolortide C [compound 40] | – | > 82.9 | > 82.9 | –
CC(=O)OCCC1(C)C(C2=CC(OC(C)=O)C3CC(O)CCC3(C)C2=O)CCC1C(C)C=CCC(C)C (stereo not drawn) [compound 30, (22E)-6,11-Diacetoxy-3-hydroxy-9,11-seco-5α-cholesta-7,22-dien-9-one] | 16.1 | 96.8 | 6.01 | –
COc1cc(O)c(-c2c3c(c(O)c4c(OC)cc(O)cc24)C(=O)C=C(C)C3=O)c2cc3c(c(O)c12)C(=O)C[C@@](C)(O)C3 [compound 38, Asperinine B] | >2.22 | > 87.7 | 39.5 | –
CC(C)C(C)C=CC(C)C1CCC(C2=CC(O)C3CC(O)CCC3(C)C2=O)C1(C)CCO [compound 28, (22E,24R)-3β,6α,11-trihydroxy-24-Methyl-9,11-seco-5α-cholesta-7,22-dien-9-one] | >1.25 | > 56.1 | 44.8 | –
CC(C)CC=CC(C)C1CCC(C2=CC(O)C3CC(O)CCC3(C)C2=O)C1(C)CCO (stereo not drawn) [compound 29, (22E)-3β,6α,11-Trihydroxy-9,11-seco-5α-cholesta-7,22-dien-9-one] | – | 57.9 | 14.7 | –
COc1cc(C)c(C(=O)O[C@@H]2[C@H](O)[C@@H](CO)O[C@H]2n2ccc(=O)[nH]c2=O)c(OC)c1 [compound 49, Kipukasin E] | – | > 59.2 | > 59.2 | –
CC[C@H](O)c1cc(O)c2c(c1)C(=O)c1cc(O)cc(O)c1C2=O [compound 39, Rhodoptilometrin] | 13.4 | 159 | 11.9 | –
C[C@]12CC[C@H](O)[C@H](O1)c1c(cc3c(c1O)C(=O)c1c(O)cc(O)cc1C3=O)O2 [compound 34, Nidurufin] | – | > 130 | > 65.1 | –
COc1cc(O)cc(C)c1C(=O)O[C@@H]1[C@H](O)[C@@H](CO)O[C@H]1n1ccc(=O)[nH]c1=O [compound 48, Kipukasin H] | – | > 123 | > 61.3 | –
C[C@@H]1NC(=O)[C@H](Cc2ccc(O)cc2)NC(=O)c2cc(O)ccc2NC(=O)[C@@H]2CCCN2C(=O)[C@H](C)NC1=O [compound 55, Asperpeptide A] (cyclo(AAP[X1]Y)) | – | > 46.6 | > 46.6 | –
CC(C)CCCC(C)C1CCC(C2=CC(O)C3CC(O)CCC3(C)C2=O)C1(C)CCO (stereo not drawn) [compound 26, 3β,6α,11-Trihydroxy-9,11-seco-5α-cholest-7-en-9-one] | – | 57.6 | 28.6 | inhibition of larval settlement in preliminary screening [1]: completely inhibited
CC(C)CCC(C)C1CCC(C2=CC(O)C3CC(O)CCC3(C)C2=O)C1(C)CCO (stereo not drawn) [compound 23, 3β,6α,11-Trihydroxy-24-nor-9,11-seco-5α-cholest-7-en-9-one] | – | 59.5 | 10.7 | inhibition of larval settlement in preliminary screening [1]: completely inhibited
COc1cc(O)cc2c1C(=O)c1c(cc3c(c1O)[C@H]1O[C@](C)(CC[C@@H]1O)O3)C2=O [compound 33, 8-O-methylnidurufin] | >8.75 | > 126 | 14.4 | –
CC(=O)Oc1cc(C)cc(Oc2cc(C)cc(O)c2)c1 [compound 9, 3-O-acetyl-diorcinol] | – | – | – | LC50 at 48 h [2]: 64.3 µM
